Results: patent EP2787958B1, “CHELIDONIUM MAJUS EXTRACTS AND THEIR USE IN THE TREATMENT OF SKIN DISORDERS AND PROMOTION OF SKIN REGENERATION” (priority 2011, dated 2013)
Where two headings read alike, the source gives them in different places.

Experiments:
[1] = test system: Human dermal fibroblasts (HDF); assay: Mitochondrial dehydrogenase activity (WST-1 formazan assay) in HDF cells; details: for Revitalizing agent: 24 hours; for activity at 1 µM / activity at 10 µM: Homo sapiens, Fibroblast, read-out: % mitochondrial dehydrogenase activity ± SD
[2] = Anti-radical activity (decay of the DPPH radical); assay type: biochemical; details: for Anti-radical (skin protective): 24 hours
Summary of the method: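 Test substance in ethanol mixed 1:1 with 200 µM DPPH (stock concentrations), in quadruplicate. Absorbance read at 530 nm after 30 min, with vitamin C and ethanol-only controls. IC50 from variable-slope Hill regression of dose-activity curves.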

[3] = test system: interleukin 1β (IL-1β); assay: Inflammatory cytokines in cell supernatant (Mosaic ELISA microarray): IL-1β; assay type: cell-based, Human; details: 24 hours
[4] = test system: HDF cells; assay: Evaluation of cell proliferation (counting of Sirius Red stained cells in photographs); details: 24 hours
[5] = test system: HUVEC cells (Human Umbilical Vein Endothelial Cells); assay: Mitochondrial dehydrogenase activity (WST-1 formazan assay) in HUVEC cells; assay type: cell-based; details: vascular endothelial cells
[6] = test system: HDF cells; assay: Summary of uses and toxic effects deduced from the cell assays (Table 1); assay type: cell-based, Human
Summary of the method: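 HDF cells exposed to test substances at a given dosage for 24 h; uses and toxicity inferred from free-radical scavenging, mitochondrial dehydrogenase activity, IL-1β/IL-6 production (basal or induced by 100 µM H2O2), proliferation under standard growth conditions, and senescence-like morphology.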

[7] = test system: Human keratinocytes (HEK, Human Epidermal Keratinocytes); assay: Mitochondrial dehydrogenase activity (WST-1 formazan assay) in HEK cells; assay type: cell-based
[8] = test system: collagen produced by HDF cells; assay: Quantity of collagen produced by the cells (elution of Sirius Red); details: 1-10 µM (1 µM and 10 µM)
[9] = test system: interleukin 6 (IL-6); assay: Inflammatory cytokines in cell supernatant (Mosaic ELISA microarray): IL-6; assay type: cell-based, Human; details: for IL-6 ng/(ml* No. of cells from photo) ± SD: 24 hours; for IL-6 production (effect in words): 1-10 µM
[10] = Dose 1 µm (coptisine: 1 pm [sic])
[11] = Dose 1 µm (coptisine: 1 pm [sic]), 24 hours

COc1ccc2cc3[n+](cc2c1OC)CCc1cc2c(cc1-3)OCO2 [berberine]
mitochondrial dehydrogenase activity (effect in words) ([1]; 1 and 10 µM, 18 h and 42 h, more marked at 42 h): increased with respect to the control
Revitalizing agent [1, 10]: Yes
Revitalizing agent ([1]; Dose 10 µm): Yes
activity at 1 µM ([1]; 18 h): 114 ± 2.98%
activity at 10 µM ([1]; 18 h): 114 ± 10%
activity at 1 µM ([1]; 42 h): 140 ± 8.89%
activity at 10 µM ([1]; 42 h): 132 ± 10.2%
mitochondrial dehydrogenase activity (effect in words) ([1]; fibroblast cells, higher doses): inhibit mitochondrial dehydrogenase activity
mitochondrial dehydrogenase activity (effect in words) ([1]; fibroblast cells, low dosage): stimulate mitochondrial dehydrogenase activity
% DPPH activity ([2]; 1 mM, 30 minutes): 100%
Anti-radical (skin protective) [2, 10]: No
Anti-radical (skin protective) ([2]; Dose 10 µm): No
IL-1β ng/(ml* No. of cells from photo) ± SD ([3]; 1 µM, 34 ng/ml TGF-β1): 138±5 ng/(ml* No. of cells from photo)
IL-1β ng/(ml* No. of cells from photo) ± SD ([3]; 1 µM, 100 µM H2O2): 178±1 ng/(ml* No. of cells from photo)
IL-1β ng/(ml* No. of cells from photo) ± SD ([3]; 1 µM, Standard conditions): 120±6 ng/(ml* No. of cells from photo)
IL-1β ng/(ml* No. of cells from photo) ± SD ([3]; 10 µM, 34 ng/ml TGF-β1): 146±4 ng/(ml* No. of cells from photo)
IL-1β ng/(ml* No. of cells from photo) ± SD ([3]; 10 µM, 100 µM H2O2): 210±16 ng/(ml* No. of cells from photo)
IL-1β ng/(ml* No. of cells from photo) ± SD ([3]; 10 µM, Standard conditions): 94±5 ng/(ml* No. of cells from photo)
No. of cells from photo ± SD ([4]; 1 µM, 34 ng/ml TGF-β1): 181±18
No. of cells from photo ± SD ([4]; 1 µM, 100 µM H2O2): 129±24
No. of cells from photo ± SD ([4]; 1 µM, Standard conditions): 203±11
No. of cells from photo ± SD ([4]; 10 µM, 34 ng/ml TGF-β1): 184±28
No. of cells from photo ± SD ([4]; 10 µM, 100 µM H2O2): 119±10
No. of cells from photo ± SD ([4]; 10 µM, Standard conditions): 176±35
mitochondrial dehydrogenase activity (effect in words) ([5]; higher doses): inhibit mitochondrial dehydrogenase activity
mitochondrial dehydrogenase activity (effect in words) ([5]; low doses): stimulate mitochondrial dehydrogenase activity
Cytotoxic [6]: No
Irritant [6]: No
Anti-fibrotic (prevention of scar formation, also from acne) [6, 11]: Yes (↓collagen, ↓IL-6)
Cytoprotective (antioxidant, anti-inflammatory and anti-ageing; useful also in the treatment of acne) [6, 11]: Yes* (↓IL-6)
Wound-healing [6, 11]: No
Anti-fibrotic (prevention of scar formation, also from acne) ([6]; Dose 10 µm, 24 hours): Yes (↓collagen, ↓IL-6)
Cytoprotective (antioxidant, anti-inflammatory and anti-ageing; useful also in the treatment of acne) ([6]; Dose 10 µm, 24 hours): Yes* (↓IL-6)
Cytotoxic ([6]; Dose 10 µm, 24 hours): No
Irritant ([6]; Dose 10 µm, 24 hours): No
Wound-healing ([6]; Dose 10 µm, 24 hours): No
concentrations at which no toxic (cytotoxic and irritant) effects are shown ([6]; exposure for 24 hours): less than or equal to 10 µM
mitochondrial dehydrogenase activity (effect in words) ([7]; higher doses): inhibit mitochondrial dehydrogenase activity
mitochondrial dehydrogenase activity (effect in words) ([7]; low doses): stimulate mitochondrial dehydrogenase activity
collagen production (effect in words) ([8]; 34 ng/ml TGF-β1): antagonizes the stimulation of collagen induced by 34 ng/ml TGF-β1
collagen production (effect in words) ([8]; 100 µM H2O2): antagonizes the inhibition of collagen production induced by H2O2
IL-6 ng/(ml* No. of cells from photo) ± SD ([9]; 1 µM, 34 ng/ml TGF-β1): 657±5 ng/(ml* No. of cells from photo)
IL-6 ng/(ml* No. of cells from photo) ± SD ([9]; 1 µM, 100 µM H2O2): 1519±155 ng/(ml* No. of cells from photo)
IL-6 ng/(ml* No. of cells from photo) ± SD ([9]; 1 µM, Standard conditions): 843±35 ng/(ml* No. of cells from photo)
IL-6 ng/(ml* No. of cells from photo) ± SD ([9]; 10 µM, 34 ng/ml TGF-β1): 603±21 ng/(ml* No. of cells from photo)
IL-6 ng/(ml* No. of cells from photo) ± SD ([9]; 10 µM, 100 µM H2O2): 1201±84 ng/(ml* No. of cells from photo)
IL-6 ng/(ml* No. of cells from photo) ± SD ([9]; 10 µM, Standard conditions): 618±25 ng/(ml* No. of cells from photo)
IL-6 production (effect in words) ([9]; 34 ng/ml TGF-β1): tendency to reduce the production of IL-6 in a dose-dependent manner
IL-6 production (effect in words) ([9]; 100 µM H2O2): tendency to reduce the production of IL-6 in a dose-dependent manner
IL-6 production (effect in words) ([9]; standard conditions): tendency to reduce the production of IL-6 in a dose-dependent manner
